Assays:
[1] = system: in vitro differentiated Me49 bradyzoites (cysts); assay: Vacuole size of in vitro differentiated Me49 cysts (DBA/SAG1 IFA); assay type: cell-based, Toxoplasma gondii; conditions: 4 days, ambient CO2
Method: (§1) Type II Me49 or Pru was differentiated using compound 1 as previously described ([50]). Confluent HFF monolayers on glass coverslips (preincubated for 2 hours with 3 µM compound 1, as described previously) were infected with 5 × 10^3 tachyzoites of the ME49 or Pru (type 2) or EGS (type I/III) strain (no compound 1 for EGS). The cells were allowed to grow and differentiate in a 37°C incubator with ambient CO2 for 3 days (EGS was allowed to spontaneously differentiate for 4 days). […] After 7 days (Me49) or 8 days (EGS) of incubation, the cells were fixed with 3% paraformaldehyde for 10 minutes, permeabilized with 0.25% Triton X-100 for 10 minutes, and then blocked in 3% bovine serum albumin for 1 hour. The coverslips were then incubated in DBA rhodamine (for Me49)([51]) or DBA lectin (a kind gift from Diego Huet for EGS) and anti-SAG1 rat antibody (a kind gift from Vern Carruthers) for 2 hours. Then, the secondary anti-rat 488 was used to visualize the SAG1 antibody. The cells were then mounted onto microscope slides with fluoromount and DAPI (4′,6-diamidino-2-phenylindole). The slides were placed in the fridge for a minimum of 24 hours before imaging on a Delta Vision microscope. The vacuole sizes were calculated using ImageJ software.

[2] = system: type I/III EGS strain cysts; assay: Vacuole size of spontaneously formed EGS cysts; assay type: cell-based, Toxoplasma gondii; conditions: EGS spontaneous cysts, 3x EC50, 4 days
Method: as §1

[3] = system: in vitro differentiated Me49 bradyzoites; assay: In vitro bradyzoite viability assay (plaques); assay type: cell-based, Toxoplasma gondii; conditions: Me49 bradyzoites treated 4 days at 3x and 5x EC50, then plaques 14 or 16 days, vs DMSO
Method: The protocol for in vitro viability assay was adapted from Zwicker et al. ([52]). Confluent HFF monolayers (preincubated for 2 hours with 3 µM compound 1) were infected with 5 × 10^3 tachyzoites of the ME49 (type 2) strain. After 24 hours, the compound 1 was removed to avoid toxicity to the host cells. The cells were allowed to grow and differentiate in a 37°C incubator with ambient CO2 for 3 days. […] After 7 days of differentiation, the cysts were collected by scraping the monolayers, syringe lysing the parasites, and treatment with acid/pepsin (170 mM sodium chloride, 60 mM hydrochloric acid, and 0.1 mg/mL pepsin) for 30 minutes in a 37°C water bath. The cysts were then neutralized with 94 mM sodium carbonate (Na2CO3) and enumerated. Ten thousand bradyzoites were plated per well in a six-well plate and allowed to grow undisturbed in a 37°C incubator with 5% CO2 for 14 or 16 days. At this time, cultures were fixed with 100% ethanol and stained with 2.5× crystal violet. The control DMSO plaque image is duplicated from Fig. 1E to be used as the representative image of plaques in Fig. 1D. Plaques were quantified using a light microscope using the 4× objective.

[4] = system: ex vivo bradyzoites of Me49-RFP from brains of chronically infected mice; assay: Ex vivo bradyzoite viability assay, Me49-RFP; assay type: cell-based, Toxoplasma gondii; conditions: inhibitors 4 hours then drug-free 14 days, 3x EC50
Method: (§2) Brains of chronically infected mice were collected, homogenized with seven strokes in a glass homogenizer, and then enumerated on a Delta Vision microscope [protocol adapted from reference ([45])]. Twenty-five cysts per plate were then placed in a tube for acid/pepsin (170 mM sodium chloride, 60 mM hydrochloric acid, and 0.1 mg/mL pepsin) treatment for 10 minutes in a 37°C water bath. The cysts were then neutralized with 94 mM Na2CO3. The liberated bradyzoites were then equally distributed into a 12-well plate. For the growth assay, the cells were grown in the presence of compounds or DMSO for 12 and 14 days undisturbed. For the viability assays, the cells were treated with compounds or DMSO for 4 hours before being washed with 1× PBS and then grown for 12 and 14 days in media without compounds. After 12 and 14 days, the cells were fixed with 100% ethanol and stained with 2.5× crystal violet. The control DMSO plaque image is duplicated from Fig. 2B to be used as the representative image of plaques in Fig. 2A. Plaques were quantified on a light microscope using the 4× objective and the size of the plaques was measured using Fiji (ImageJ) software.

[5] = system: ex vivo bradyzoites of the Pru strain from chronically infected mice; assay: Ex vivo bradyzoite growth assay, Pru; assay type: cell-based, Toxoplasma gondii; conditions: 3x EC50
Method: as §2

[6] = system: ex vivo bradyzoites of the Pru strain from chronically infected mice; assay: Ex vivo bradyzoite viability assay, Pru; assay type: cell-based, Toxoplasma gondii; conditions: 3x EC50
Method: as §2

[7] = system: in vitro derived Pru cysts; assay: Vacuole size of in vitro derived Pru cysts; assay type: cell-based, Toxoplasma gondii
Method: as §1

[8] = system: Me49-RFP brain tissue cysts in Swiss Webster mice; assay: Treatment of Swiss Webster mice chronically infected with Me49-RFP; assay type: in vivo, Toxoplasma gondii; conditions: Swiss Webster mice, 5,000 Me49-RFP i.p., BPH-1218 at 1 mg/kg daily for 16 days
[9] = system: RH-RFP tachyzoites in Swiss Webster mice; conditions: RH parasites; cited from earlier work
[10] = system: Pru-GFP brain tissue cysts in Balb/c mice; assay: Treatment of Balb/c mice chronically infected with Pru-GFP; conditions: Balb/c mice, 1,500 Pru-GFP i.p., 1 mg/kg/day i.p. for 16 days from 28 dpi
Method: BALB/c male mice (Jackson Laboratory) were injected i.p. with a 200 µL suspension of 1,500 tachyzoites of the Pru-GFP strain T. gondii (type II genotype) (a gift from Laura Knoll). […] At 4 weeks post-infection, the brains of two mice were collected to check for the presence of cysts and to confirm that the mice were in the chronic stage. At this time, the remaining mice were injected i.p. daily for 16 consecutive days with 200 µL solvent (10% Kolliphor HS-15) or compounds dissolved in 10% HS-15. […] Mice were euthanized humanely 2 weeks after the final injection. The mouse brains were collected in 1 mL sterile PBS, minced with scissors, and homogenized using a glass homogenizer. Four 20 µL samples (80 µL total or 8% of sample) of each brain homogenate were placed on a glass microscope slide. Cysts were enumerated using a Delta Vision fluorescence microscope.

[11] = system: hyperactivity of Balb/c mice chronically infected with Pru-GFP; assay: CageDot continuous monitoring of mouse activity during chronic infection; conditions: 1 mg/kg/day i.p. 16 days, 15 dpt and 2 wpt
Method: At this time, the remaining mice were injected i.p. daily for 16 consecutive days with 200 µL solvent (10% Kolliphor HS-15) or compounds dissolved in 10% HS-15. […] Mice were euthanized humanely 2 weeks after the final injection.
Mice were monitored during the infection using the CageDot ([30], [31]), which detects vibrations. […] Data are collected at a 100 Hz sampling rate (each second, 100 data points were collected).

T. gondii = system: T. gondii; set-up: method as in PMID 17069459; conditions: cited from earlier work
[12] = system: RH-RFP tachyzoites in Swiss Webster mice; assay: Mice infected with a lethal dose of T. gondii (acute infection); assay type: in vivo, Toxoplasma gondii; conditions: 100 RH-RFP tachyzoites i.p., daily i.p. treatment for 10 days starting 6 hours after infection
Method: Experiments were carried out as described previously ([16]) using 100 T. gondii tachyzoites of the RH td-Tomato strain (RH-RFP) to infect female Swiss Webster mice. Drugs were dissolved in 10% Kolliphor HS-15 and were inoculated i.p. starting 6 hours after infection and administered for 10 days. The survival of mice was monitored along with their weight. Mice were sacrificed if they lost over 20% of their body weight. Surviving mice were challenged on day 30 post-infection with 10,000 RH-RFP tachyzoites. Blood was collected at 30 dpi (before challenge) and at the time of euthanasia (3 weeks post challenge) to analyze the presence of T. gondii antibodies. To test for antibodies, we ran a western blot with RH-RFP lysate protein and probed the membrane with the serum collected from the mice. Protein extraction and western blot conditions were as done previously ([20]). After blocking with 5% milk in PBS-T (0.1% Tween 20 in phosphate buffered saline [PBS]), we washed the membrane three times for 5 minutes with PBS-T and attached it to the BioRad multiscreen tool. The RH-RFP lysate was ran throughout the whole gel to allow for testing of different serum (antibodies) on the same membrane. […]

Structure (SMILES) | vacuole size ([1]; 5x EC50 against tachyzoites) | size of the vacuoles (cysts) [2] | number of plaques (bradyzoite viability) [3] | number of plaques, ex vivo viability [4] | number of plaques, ex vivo growth [5] | number of plaques, ex vivo viability [6] | vacuole size ([1]; 3x EC50 against tachyzoites) | vacuole size [7] | reduction of cyst burden [8] [%] | protection against lethal acute infection [9] | reduction of cyst burden [10] [%] | activity of infected mice (nightly average energy, CageDot) [11] | induction of bradyzoite-specific antigen 1 (T. gondii) | replication of T. gondii (T. gondii) | protection against lethal acute infection (survival) [12]
CCCCCCCCCn1cc[n+](CC(O)(P(=O)([O-])O)P(=O)(O)O)c1 (stereo not drawn) [BPH-1238] | diminished vacuole size | reduced the size of the vacuoles | plaque number was significantly reduced | reduced the viability of ex vivo bradyzoites | significant reduction in the number of plaques | significant reduction in the number of plaques | – | – | – | – | – | – | – | – | –
CCCCCCCCCCn1cc[n+](CC(P(=O)([O-])O)P(=O)(O)O)c1 (stereo not drawn) [BPH-1218] | diminished vacuole size | reduced the size of the vacuoles | plaque number was significantly reduced | reduced the viability of ex vivo bradyzoites | significant reduction in the number of plaques | significant reduction in the number of plaques | showed the same effect on vacuole size | decreased the vacuole size | 73.6 | protected mice against a lethal acute infection | 74.0 | decreased the activity of the infected mice to similar levels of the control uninfected mice | – | – | –
CN1CCC(c2cc(-c3ccncc3)c(-c3ccc(F)cc3)[nH]2)CC1 [Compound 1, 4-[2-(4-fluorophenyl)-5-(1-methylpiperidine-4-yl)-1H-pyrrol-3-yl]pyridine] | – | – | – | – | – | – | – | – | – | – | – | – | potent inducer of bradyzoite-specific antigen 1 | dramatically slow the replication | –
CCCCCCCCCCCn1cc[n+](CC(O)(P(=O)([O-])O)P(=O)(O)O)c1 (stereo not drawn) [BPH-1236] | diminished vacuole size | reduced the size of the vacuoles | plaque number was significantly reduced | reduced the viability of ex vivo bradyzoites | significant reduction in the number of plaques | significant reduction in the number of plaques | – | – | – | – | – | – | – | – | protected mice against the acute infection

— article PMC11558998, “Lipophilic bisphosphonates reduced cyst burden and ameliorated hyperactivity of mice chronically infected with Toxoplasma gondii” (mBio, 2024)
